Reference: patent US20230192660A1 (priority 2020, published 2023)
In brackets after ≈: the same amount, converted by molar mass. Several values for one entry are separate records, joined by “and”; a condition that tells them apart may be missing. Identical values can stand only once. Like-named read-outs stand apart in the source and are kept apart here.

Columns and labels:
MHV M^pro = MHV M^pro (UniProt P0C6X9); assay: In-vitro Mpro inhibition assay, MHV enzyme; format: biochemical, mouse hepatitis virus (MHV)
Chain of MHV M^pro (P0C6X9 3334-3635): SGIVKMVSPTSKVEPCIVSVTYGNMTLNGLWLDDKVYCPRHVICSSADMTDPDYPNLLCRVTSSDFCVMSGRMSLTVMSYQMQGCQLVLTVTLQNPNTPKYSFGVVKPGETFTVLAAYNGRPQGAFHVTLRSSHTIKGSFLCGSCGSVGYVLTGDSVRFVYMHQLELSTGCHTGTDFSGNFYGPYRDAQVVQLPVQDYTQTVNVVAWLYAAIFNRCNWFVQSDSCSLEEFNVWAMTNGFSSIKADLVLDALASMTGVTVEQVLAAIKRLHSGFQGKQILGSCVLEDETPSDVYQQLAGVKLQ

Human Cathepsin B = Human Cathepsin B (Homo sapiens, UniProt P07858); assay: Cathepsin B protease specificity assay (Z-LR-AMC substrate); format: biochemical
Human Cathepsin L = Human Cathepsin L (Homo sapiens, UniProt P07711); assay: biochemical; settings: 0.01 ng/uL Cathepsin L, pH 5.5, 2 mM DTT; read-out: IC50 HCathepsin L
Chain of Human Cathepsin L (P07711 114-333): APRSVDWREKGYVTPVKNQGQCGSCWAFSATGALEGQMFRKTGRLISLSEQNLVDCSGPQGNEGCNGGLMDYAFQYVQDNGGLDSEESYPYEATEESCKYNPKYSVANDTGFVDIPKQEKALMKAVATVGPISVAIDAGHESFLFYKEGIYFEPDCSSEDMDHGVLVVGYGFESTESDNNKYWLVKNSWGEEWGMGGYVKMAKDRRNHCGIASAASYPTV

in vitro [1] = settings: human
in vitro [2] = settings: human, Caco-2
physchem = settings: aqueous buffer, kinetic from dmso stock
in vitro [3] = settings: human, Caco-2; remark: listed apart in the source
in vitro [4] = settings: human plasma
in vitro [5] = settings: mouse, plasma
[6] = cited from earlier work
mature SARSCoV2 M^pro = mature SARSCoV2 M^pro (Severe acute respiratory syndrome coronavirus 2, UniProt P0DTD1); assay: biochemical; parameters: species or system SARS-CoV-2
MERS Mpro = MERS Mpro (Middle East respiratory syndrome-related coronavirus, UniProt K9N7C7); assay: biochemical
Chain of MERS Mpro (K9N7C7 3248-3553 limits assumed): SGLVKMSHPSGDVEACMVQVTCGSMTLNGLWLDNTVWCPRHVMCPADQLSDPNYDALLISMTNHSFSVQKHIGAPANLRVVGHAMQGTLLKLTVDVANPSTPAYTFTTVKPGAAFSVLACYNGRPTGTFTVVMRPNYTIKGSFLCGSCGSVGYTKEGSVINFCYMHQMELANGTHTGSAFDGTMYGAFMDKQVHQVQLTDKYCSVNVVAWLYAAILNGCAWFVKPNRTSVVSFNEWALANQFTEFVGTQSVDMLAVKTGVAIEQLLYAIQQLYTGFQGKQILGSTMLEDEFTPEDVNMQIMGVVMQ

HCoV229E Mpro = HCoV229E Mpro (Human coronavirus 229E, UniProt P0C6X1); assay: biochemical
Chain of HCoV229E Mpro (P0C6X1 2966-3267): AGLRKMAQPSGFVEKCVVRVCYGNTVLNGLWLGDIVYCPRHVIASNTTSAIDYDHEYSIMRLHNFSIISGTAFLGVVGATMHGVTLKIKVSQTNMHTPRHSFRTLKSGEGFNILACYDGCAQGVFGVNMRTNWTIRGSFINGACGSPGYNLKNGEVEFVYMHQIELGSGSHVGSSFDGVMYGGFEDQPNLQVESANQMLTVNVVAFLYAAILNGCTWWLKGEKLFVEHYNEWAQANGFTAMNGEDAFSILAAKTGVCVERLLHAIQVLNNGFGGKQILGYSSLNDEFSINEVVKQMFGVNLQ

SARS-CoV-2 mature Mpro = SARS-CoV-2 mature Mpro (Severe acute respiratory syndrome coronavirus 2, UniProt P0DTD1); format: binding; settings: 3 μM Mpro, 30 μM compound
in vitro [7] = settings: human; remark: listed apart in the source
in vitro [8] = settings: human; remark: listed apart in the source
[9] = after a nasal dose; cited from earlier work
SARS-CoV-2 M^pro-His6 = SARS-CoV-2 M^pro-His6 (Severe acute respiratory syndrome coronavirus 2, UniProt P0DTD1); assay: biochemical; settings: for inhibition at 150 µM: read-out: inhibition of enzyme activity
SARSCoV2 = format: cell-based, SARS-CoV-2
Huh7 cells [10] = settings: 100 μM, Huh-7 cells
Huh7 cells [11] = settings: read-out: CC50 Huh7; 72h incubation
[12] = not given; remark: listed apart in the source
[13] = not given; remark: listed apart in the source
[14] = 100 nM MHV Mpro, read-out: IC50 MHV Mpro
[15] = read-out: IC50, 100 nM mature MHV M^pro at 30° C., 100 nM enzyme, 30° C.
[16] = 0.05 ng/uL Cathepsin B, pH 5.5, 2 mM DTT, read-out: IC50 HCathepsin B
[17] = 20 nM SARSCoV2 Mpro, 30 min incubation, read-out: IC50 SARSCov2 Mpro
[18] = Example 6, read-out: IC50 against SARS-CoV-2 Mpro

## CC(C)(C)NC(=O)N[C@H](C(=O)N1C[C@H]2[C@@H]([C@H]1C(=O)NC(CC1CCC1)C(=O)C(N)=O)C2(C)C)C(C)(C)C (stereo partly drawn) [Boceprevir, boceprevir, reference compound]
MHV M^pro; [14]
  IC50: 15000 nM
MHV M^pro; [15]
  IC50: 15000 ± 7000 nM
Human Cathepsin B; [16]
  IC50: 4500 nM
Human Cathepsin L
  IC50: 400 nM
In vitro [1]
  CC50: > 100000 nM
In vitro [2]
  CC50: > 100000 nM
physchem
  solubility kinetic: 73 µM (≈ 37.9 µg/mL)
In vitro [3]
  Papp A→B: 2 ×10⁻⁶ cm/s
  Papp B→A: 29 ×10⁻⁶ cm/s
In vitro [4]
  half-life: 8.25 h
In vitro [5]
  half-life: 0.467 h
[6]; after a maximal 800 mg oral dose
  peak plasma concentration: 3 µM

## CNC(=O)C(=O)[C@H](C[C@@H]1CCNC1=O)NC(=O)[C@@H]1[C@@H]2[C@H](CN1C(=O)[C@@H](NC(=O)C13CC(C1)C3)C(C)(C)C)C2(C)C [ML1002m]
Mature SARSCoV2 M^pro; [17]
  IC50: 20 nM
MERS Mpro
  IC50: 250 nM
HCoV229E Mpro
  IC50: 400 nM
SARS-CoV-2 mature Mpro
  ΔTm Mpro: 21 °C
In vitro [7]
  CC50: > 100000 nM
In vitro [8]
  CC50: > 100000 nM
physchem
  solubility kinetic: > 100 µM
In vitro [3]
  Papp A→B: 0.4 ×10⁻⁶ cm/s
  Papp B→A: 0.7 ×10⁻⁶ cm/s
In vitro [5]
  half-life: 2.83 h

## CCOC(=O)/C=C/[C@H](C[C@@H]1CCNC1=O)NC(=O)[C@@H](CC(=O)[C@@H](NC(=O)c1cc(C)on1)C(C)C)Cc1ccc(F)cc1 [rupintrivir]
[9]
  concentration on nasal surfaces: 5 µM

## CC1(C)[C@@H]2[C@@H](C(=O)N[C@@H](C[C@@H]3CCNC3=O)C(=O)C(N)=O)N(C(=O)CCc3ccccc3)C[C@@H]21 [ML102]
Mature SARSCoV2 M^pro; [17]
  IC50: 90 nM
MHV M^pro; [14]
  IC50: 980 nM
MERS Mpro
  IC50: 1200 nM
HCoV229E Mpro
  IC50: 290 nM
Human Cathepsin B; [16]
  IC50: 2200 nM
Human Cathepsin L
  IC50: 800 nM
SARS-CoV-2 mature Mpro
  ΔTm Mpro: 15.5 °C
other
  Plasma Stability Human T1/2: ∞
In vitro [7]
  CC50: > 100000 nM
In vitro [8]
  CC50: > 100000 nM
physchem
  solubility kinetic: 83 µM (≈ 38.9 µg/mL)
In vitro [3]
  Papp A→B: < 0.2 ×10⁻⁶ cm/s
  Papp B→A: 0.7 ×10⁻⁶ cm/s
In vitro [5]
  half-life: 0.3 h

## CC(C)c1nc(CN(C)C(=O)N[C@H](C(=O)N[C@@H](Cc2ccccc2)C[C@H](O)[C@H](Cc2ccccc2)NC(=O)OCc2cncs2)C(C)C)cs1 [ritonavir]
SARS-CoV-2 M^pro-His6; 150 μM drug, 2 mM DTT, 100 nM M^pro-His6
  inhibition at 150 µM: < 50%
SARS-CoV-2 M^pro-His6; 150 μM, absence of DTT (air-equilibrated buffer)
  inhibition of M^pro activity: no inhibitory effect

## CC(C)(C)NC(=O)N[C@H](C(=O)N1C[C@H]2[C@@H]([C@H]1C(=O)N[C@@H](C[C@@H]1CCNC1=O)C(=O)C(N)=O)C2(C)C)C(C)(C)C [ML1000]
MERS Mpro; read-out: IC50 MERS Mpro
  IC50: 530 nM
HCoV229E Mpro
  IC50: 130 nM
Human Cathepsin B; [16]
  IC50: 5900 nM
Human Cathepsin L
  IC50: 3200 nM
SARSCoV2; read-out: EC50: 50% effective antiviral concentration
  EC50: 100 nM
Huh7 cells [10]
  cytotoxicity at the highest dose tested: no cytotoxicity
Huh7 cells [11]
  CC50: > 100000 nM
[12]
  Kinetic Solubility in PBS: 87 µM
Caco-2
  Caco-2 Permeability Papp B-A: 0.4 10-6 cm/s
Caco-2; Caco-2
  Caco-2 Permeability Papp A-B: <0.2 10-6 cm/s
other
  Plasma Stability Human T1/2: 1.82 h
[13]
  Plasma Stability Mouse T1/2: 0.383 h

## CCN(CC)C(=S)SSC(=S)N(CC)CC [disulfiram]
SARS-CoV-2 M^pro-His6
  inhibition at 150 µM: < 50%

## O=c1c2ccccc2[se]n1-c1ccccc1 [ebselen]
SARS-CoV-2 M^pro-His6
  inhibition at 150 µM: < 50%

## COc1cccc2[nH]c(C(=O)N3C[C@H]4[C@@H]([C@H]3C(=O)N[C@@H](C[C@@H]3CCNC3=O)C(=O)C(N)=O)C4(C)C)cc12 [ML105]
Mature SARSCoV2 M^pro; [17]
  IC50: 20 nM
Mature SARSCoV2 M^pro; [18]
  IC50: < 50 nM
MHV M^pro; [14]
  IC50: 60 nM
MERS Mpro
  IC50: 340 nM
HCoV229E Mpro
  IC50: 10 nM
Human Cathepsin B; [16]
  IC50: 700 nM
Human Cathepsin L
  IC50: 300 nM
SARS-CoV-2 mature Mpro
  ΔTm Mpro: 18.6 °C
other
  Plasma Stability Human T1/2: ∞
In vitro [2]
  CC50: > 100000 nM
In vitro [7]
  CC50: > 100000 nM
In vitro [8]
  CC50: > 100000 nM
physchem
  solubility kinetic: 80 µM (≈ 40.8 µg/mL)
In vitro [3]
  Papp A→B: < 0.2 ×10⁻⁶ cm/s
  Papp B→A: 0.3 ×10⁻⁶ cm/s
In vitro [5]
  half-life: 0.333 h

## CC(C)(C)CC(=O)N[C@H](C(=O)N1C[C@H]2[C@@H]([C@H]1C(=O)NC(C[C@@H]1CCNC1=O)C(=O)C(N)=O)C2(C)C)C(C)(C)C (stereo partly drawn) [ML1001]
MHV M^pro; [14]
  IC50: 70 nM
MERS Mpro
  IC50: 260 nM
HCoV229E Mpro
  IC50: 500 nM
Human Cathepsin B; [16]
  IC50: 42000 nM
Human Cathepsin L
  IC50: 33000 nM
SARS-CoV-2 mature Mpro
  ΔTm Mpro: 21.6 °C
In vitro [2]
  CC50: > 100000 nM
In vitro [7]
  CC50: > 100000 nM
In vitro [8]
  CC50: > 100000 nM
physchem
  solubility kinetic: 66 µM (≈ 36.1 µg/mL)
In vitro [3]
  Papp A→B: < 0.2 ×10⁻⁶ cm/s
  Papp B→A: 0.5 ×10⁻⁶ cm/s
In vitro [4]
  half-life: 5.5 h
In vitro [5]
  half-life: 0.433 h

## CCC[C@H](NC(=O)[C@@H]1[C@H]2CCC[C@H]2CN1C(=O)[C@@H](NC(=O)[C@@H](NC(=O)c1cnccn1)C1CCCCC1)C(C)(C)C)C(=O)C(=O)NC1CC1 [Telaprevir, telaprevir, reference compound]
Human Cathepsin B
  IC50: 36000 nM
Human Cathepsin L
  IC50: 25000 nM
In vitro [7]
  CC50: 10000 to 100000 nM
In vitro [8]
  CC50: 10000 to 100000 nM
[6]; after a maximal 750 mg dose
  peak plasma concentration: 5 µM

## CC1(C)[C@@H]2[C@@H](C(=O)NC(C[C@@H]3CCNC3=O)C(=O)C(N)=O)N(C(=O)CNc3c(F)cc(F)cc3F)C[C@@H]21 (stereo partly drawn) [ML104]
Mature SARSCoV2 M^pro; [18]
  IC50: < 50 nM and 30 nM
MHV M^pro; [14]
  IC50: 250 nM
MERS Mpro
  IC50: 190 nM
HCoV229E Mpro
  IC50: 440 nM
Human Cathepsin B; [16]
  IC50: 17000 nM
Human Cathepsin L
  IC50: 11000 nM
SARS-CoV-2 mature Mpro
  ΔTm Mpro: 17.5 °C
other
  Plasma Stability Human T1/2: ∞
In vitro [2]
  CC50: > 100000 nM
In vitro [7]
  CC50: > 100000 nM
In vitro [8]
  CC50: > 100000 nM
physchem
  solubility kinetic: 86 µM (≈ 45 µg/mL)
In vitro [3]
  Papp A→B: < 0.2 ×10⁻⁶ cm/s
  Papp B→A: 0.9 ×10⁻⁶ cm/s
In vitro [5]
  half-life: 1.67 h

## CC(C)C[C@H](NC(=O)OCc1ccccc1)C(=O)N[C@@H](CC1CCNC1=O)C(O)S(=O)(=O)[O-].[Na+] (stereo partly drawn) [GC-376, reference compound]
MHV M^pro; [14]
  IC50: 50 nM
MHV M^pro; [15]
  IC50: 67 nM
Human Cathepsin B; [16]
  IC50: 1 nM
Human Cathepsin L
  IC50: 1 nM
SARSCoV2; read-out: EC50
  EC50: 0.1 nM
Huh7 cells [11]
  CC50: > 100000 nM
[12]
  Kinetic Solubility in PBS: 71 µM
Caco-2; A-B
  Caco-2 Permeability Papp A-B: <0.3 10-6 cm/s
Caco-2
  Caco-2 Permeability Papp B-A: 5 10-6 cm/s
other
  Plasma Stability Human T1/2: 1.58 h
[13]
  Plasma Stability Mouse T1/2: 3.87 h

## CC(C)(C)[C@H](NC(=O)C12CC(C1)C2)C(=O)N1C[C@H]2[C@@H]([C@H]1C(=O)N[C@@H](C[C@@H]1CCNC1=O)C(=O)C(N)=O)C2(C)C [ML1002]
Mature SARSCoV2 M^pro; [17]
  IC50: 20 nM
Mature SARSCoV2 M^pro; [18]
  IC50: < 50 nM
MERS Mpro
  IC50: 190 nM
HCoV229E Mpro
  IC50: 260 nM
SARS-CoV-2 mature Mpro
  ΔTm Mpro: 21.6 °C
In vitro [7]
  CC50: > 100000 nM
In vitro [8]
  CC50: > 100000 nM
physchem
  solubility kinetic: > 100 µM
In vitro [3]
  Papp A→B: < 0.2 ×10⁻⁶ cm/s
  Papp B→A: < 0.2 ×10⁻⁶ cm/s
In vitro [5]
  half-life: 0.35 h

## CNC(=O)C(=O)[C@H](C[C@@H]1CCNC1=O)NC(=O)[C@@H]1[C@@H]2[C@H](CN1C(=O)CCc1ccccc1)C2(C)C [ML102m]
Mature SARSCoV2 M^pro; [17]
  IC50: 120 nM
MERS Mpro
  IC50: 1100 nM
HCoV229E Mpro
  IC50: 720 nM
SARS-CoV-2 mature Mpro
  ΔTm Mpro: 15.2 °C
In vitro [7]
  CC50: > 100000 nM
In vitro [8]
  CC50: > 100000 nM
physchem
  solubility kinetic: > 100 µM
In vitro [3]
  Papp A→B: 0.4 ×10⁻⁶ cm/s
  Papp B→A: 1.8 ×10⁻⁶ cm/s
In vitro [5]
  half-life: 0.75 h

## CNC(=O)C(=O)[C@H](C[C@@H]1CCNC1=O)NC(=O)[C@@H]1[C@@H]2[C@H](CN1C(=O)CNc1c(F)cc(F)cc1F)C2(C)C [ML104m]
MERS Mpro
  IC50: 290 nM
HCoV229E Mpro
  IC50: 230 nM
SARS-CoV-2 mature Mpro
  ΔTm Mpro: 17.1 °C
In vitro [7]
  CC50: > 100000 nM
In vitro [8]
  CC50: > 100000 nM
physchem
  solubility kinetic: 98 µM (≈ 52.7 µg/mL)
In vitro [3]
  Papp A→B: 0.5 ×10⁻⁶ cm/s
  Papp B→A: 2.5 ×10⁻⁶ cm/s
In vitro [5]
  half-life: 1.35 h
